One may read the EC50 as the concentration giving half of the maximal effect. A word on the AC50: it is the concentration giving half of the maximal activity seen.

The test system of one data set is H4. In words: Luminescence Cell-Based Dose Response HTS to Identify Activators of 5'UTR Stem-Loop Driven Prion Protein mRNA Translation in H4 Neuroglioblastoma Cells. [Related pubchem assays: 1829 (Project Summary), 1814 (Primary HTS)]. It is filed as functional. Particulars: Homo sapiens.
Data set [1] can be described thus: Luminescence Cell-Based Dose Response HTS to Identify Activators of Luciferase Translation or Activity in H4 […] Cells. [Related pubchem assays: 1829 (Project Summary), 1814 (Primary HTS)]. The class given is functional.
A short description of data set [2]: Luminescence Cell-Based Dose Confirmation HTS to Identify Activators of 5'UTR Stem-Loop Driven Alpha-Synuclein mRNA Translation in H4 Neuroglioblastoma Cells. [Related pubchem assays: 1829 (Project Summary), 1814 (Primary HTS)]. The class given is functional.
The target of another data set is Cytochrome P450 3A4 (Homo sapiens, UniProt P08684).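 Also: CYP3A4 tested as one member of a cytochrome P450 panel screen.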
Chain of Cytochrome P450 3A4 (P08684 whole entry): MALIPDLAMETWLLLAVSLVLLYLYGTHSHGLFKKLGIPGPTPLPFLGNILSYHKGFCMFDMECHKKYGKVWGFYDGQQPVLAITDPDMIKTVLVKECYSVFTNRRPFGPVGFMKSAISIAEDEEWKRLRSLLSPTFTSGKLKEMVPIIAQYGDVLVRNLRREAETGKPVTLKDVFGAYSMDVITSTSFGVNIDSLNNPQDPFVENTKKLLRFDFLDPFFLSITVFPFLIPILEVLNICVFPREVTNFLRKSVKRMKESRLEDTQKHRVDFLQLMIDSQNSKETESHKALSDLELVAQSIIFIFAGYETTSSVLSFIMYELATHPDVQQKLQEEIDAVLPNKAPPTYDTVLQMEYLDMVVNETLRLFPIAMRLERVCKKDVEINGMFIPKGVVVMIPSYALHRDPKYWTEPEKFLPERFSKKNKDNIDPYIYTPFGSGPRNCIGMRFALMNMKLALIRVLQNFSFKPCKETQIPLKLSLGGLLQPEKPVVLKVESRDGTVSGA
A further data set has as its target Cytochrome P450 2D6 (Homo sapiens, UniProt P10635).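 Also: CYP2D6 member of a cytochrome P450 panel assay.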
The target of a further data set is T1, Cytochrome P450 1A2 (Homo sapiens, UniProt P05177).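 Also: PubChem cytochrome P450 panel assay, CYP1A2 panel member.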
T1 sequence (P05177 whole entry): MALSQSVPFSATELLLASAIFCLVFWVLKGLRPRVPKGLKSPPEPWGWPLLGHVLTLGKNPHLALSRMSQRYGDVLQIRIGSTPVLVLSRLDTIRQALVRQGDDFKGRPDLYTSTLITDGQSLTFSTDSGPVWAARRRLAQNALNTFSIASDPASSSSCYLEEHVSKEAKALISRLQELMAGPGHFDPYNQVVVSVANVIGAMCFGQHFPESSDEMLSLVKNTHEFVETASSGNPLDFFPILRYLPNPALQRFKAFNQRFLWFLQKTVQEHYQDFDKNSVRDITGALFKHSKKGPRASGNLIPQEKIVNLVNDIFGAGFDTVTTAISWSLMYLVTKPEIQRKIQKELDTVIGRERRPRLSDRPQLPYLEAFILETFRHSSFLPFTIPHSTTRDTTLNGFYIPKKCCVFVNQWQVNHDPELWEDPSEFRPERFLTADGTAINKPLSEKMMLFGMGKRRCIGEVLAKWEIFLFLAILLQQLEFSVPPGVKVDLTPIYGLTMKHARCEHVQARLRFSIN

A further data set addresses Cytochrome P450 2C9 (Homo sapiens, UniProt P11712).
For another data set, the target named is Cytochrome P450 2C19 (Homo sapiens, UniProt P33261). In words: Cytochrome panel assay with activity outcomes. Panel member name: p450-cyp2c19 Compounds with AC50 equal or less than 10 uM are considered active. It is filed as functional.
Chain of Cytochrome P450 2C19 (P33261 whole entry): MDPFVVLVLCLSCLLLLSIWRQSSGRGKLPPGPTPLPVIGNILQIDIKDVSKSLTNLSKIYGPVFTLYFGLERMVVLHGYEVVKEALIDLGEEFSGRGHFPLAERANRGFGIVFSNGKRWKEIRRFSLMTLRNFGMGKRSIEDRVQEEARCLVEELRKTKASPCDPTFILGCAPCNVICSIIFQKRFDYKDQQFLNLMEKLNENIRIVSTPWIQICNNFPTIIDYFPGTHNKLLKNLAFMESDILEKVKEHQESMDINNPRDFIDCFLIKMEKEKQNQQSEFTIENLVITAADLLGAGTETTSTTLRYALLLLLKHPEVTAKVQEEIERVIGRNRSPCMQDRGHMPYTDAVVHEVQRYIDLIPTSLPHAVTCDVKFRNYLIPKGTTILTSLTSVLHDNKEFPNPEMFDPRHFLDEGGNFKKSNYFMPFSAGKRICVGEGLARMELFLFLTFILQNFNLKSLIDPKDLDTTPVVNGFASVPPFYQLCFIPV
The target of another data set is T2, Protein RecA (Mycobacterium tuberculosis, UniProt P9WHJ3).
T2 sequence (P9WHJ3 whole entry): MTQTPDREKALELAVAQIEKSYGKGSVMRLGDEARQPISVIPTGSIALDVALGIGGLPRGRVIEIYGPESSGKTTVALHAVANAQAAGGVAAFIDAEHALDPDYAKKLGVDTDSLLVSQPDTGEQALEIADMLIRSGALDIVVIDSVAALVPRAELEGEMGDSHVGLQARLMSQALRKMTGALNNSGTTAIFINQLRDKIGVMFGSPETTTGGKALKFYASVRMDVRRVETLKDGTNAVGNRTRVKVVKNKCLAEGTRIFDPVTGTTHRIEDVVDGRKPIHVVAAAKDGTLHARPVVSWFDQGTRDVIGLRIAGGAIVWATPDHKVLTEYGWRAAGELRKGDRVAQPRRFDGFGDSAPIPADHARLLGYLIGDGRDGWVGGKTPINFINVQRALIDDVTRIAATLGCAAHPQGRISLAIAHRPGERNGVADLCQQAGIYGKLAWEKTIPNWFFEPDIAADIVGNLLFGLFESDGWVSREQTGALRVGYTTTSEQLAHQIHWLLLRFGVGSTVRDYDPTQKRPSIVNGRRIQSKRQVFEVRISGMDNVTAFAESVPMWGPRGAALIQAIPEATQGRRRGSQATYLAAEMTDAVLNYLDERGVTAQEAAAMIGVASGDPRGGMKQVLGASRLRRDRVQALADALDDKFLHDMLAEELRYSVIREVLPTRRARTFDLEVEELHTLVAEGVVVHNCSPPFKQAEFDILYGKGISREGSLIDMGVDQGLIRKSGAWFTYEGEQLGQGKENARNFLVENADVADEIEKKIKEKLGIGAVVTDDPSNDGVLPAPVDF
The experiment in a line: Fluorescence Cell-Free Homogeneous Dose Retest to Identify Inhibitors of RecA-Intein Splicing Activity. [Related pubchem assays (depositor defined):AID2097, AID2223, AID489010, AID492950]. It is filed as functional.

Structures are written as SMILES. The source made the active and inactive calls. Some results are limits rather than exact numbers.

Chain of Cytochrome P450 2C9 (P11712 whole entry): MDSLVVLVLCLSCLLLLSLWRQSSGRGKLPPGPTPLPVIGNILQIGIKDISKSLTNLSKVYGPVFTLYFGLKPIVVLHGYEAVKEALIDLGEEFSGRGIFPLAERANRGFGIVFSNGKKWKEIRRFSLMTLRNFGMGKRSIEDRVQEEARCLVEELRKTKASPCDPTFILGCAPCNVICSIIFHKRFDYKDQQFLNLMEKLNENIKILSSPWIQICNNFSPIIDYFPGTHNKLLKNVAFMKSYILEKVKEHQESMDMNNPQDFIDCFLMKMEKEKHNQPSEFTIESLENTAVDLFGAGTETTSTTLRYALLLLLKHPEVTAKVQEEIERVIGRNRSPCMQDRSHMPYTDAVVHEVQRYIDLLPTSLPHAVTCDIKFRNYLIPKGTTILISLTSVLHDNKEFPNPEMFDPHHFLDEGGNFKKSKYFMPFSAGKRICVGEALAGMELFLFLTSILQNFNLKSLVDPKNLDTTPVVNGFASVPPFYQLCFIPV
Chain of Cytochrome P450 2D6 (P10635 whole entry): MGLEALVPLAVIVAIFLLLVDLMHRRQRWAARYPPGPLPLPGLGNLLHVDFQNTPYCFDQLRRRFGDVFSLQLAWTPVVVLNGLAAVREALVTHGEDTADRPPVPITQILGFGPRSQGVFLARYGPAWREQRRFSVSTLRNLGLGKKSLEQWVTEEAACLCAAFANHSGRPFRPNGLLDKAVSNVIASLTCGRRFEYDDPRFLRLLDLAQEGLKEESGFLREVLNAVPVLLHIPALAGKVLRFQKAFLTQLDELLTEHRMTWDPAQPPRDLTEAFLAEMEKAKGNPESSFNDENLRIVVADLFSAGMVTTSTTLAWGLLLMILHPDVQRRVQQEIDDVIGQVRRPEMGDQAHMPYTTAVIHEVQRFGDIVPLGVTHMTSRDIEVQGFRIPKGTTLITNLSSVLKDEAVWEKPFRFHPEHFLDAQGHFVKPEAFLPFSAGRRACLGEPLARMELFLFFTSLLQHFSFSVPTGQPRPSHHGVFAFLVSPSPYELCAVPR

Regarding `CCOC(=O)c1cnn(-c2ccc(C(F)(F)F)cn2)c1N`, the figures for the EC50 (with H4; in data set [1]; in [2]) were > 120 µM (not active), > 120 µM (not active) and 21.1 µM (active), respectively.
For `COc1ccccc1-c1nc(N2CCOCC2)c2ccccc2n1`, the half-maximal activity concentration (AC50) on Cytochrome P450 3A4 was 15.8 µM (inconclusive); at Cytochrome P450 2D6, 12.6 µM (inconclusive).
Consider `O=[N+]([O-])c1ccccc1CSc1nc(O)c2nc[nH]c2n1`, for which the AC50 on Cytochrome P450 3A4 is 3.98 µM (inconclusive).
On to `CCOc1c2ccc(C(=O)NCc3cc(C(F)(F)F)cc(C(F)(F)F)c3)cc2nn1C`, for which the AC50 at Cytochrome P450 1A2 is 17.8 µM (inconclusive); on Cytochrome P450 2C9, 31.6 µM (inconclusive); at Cytochrome P450 2D6, 20 µM (inconclusive).
As to `CCOC(=O)c1c(C)[nH]c2ccc3c(c12)CN1CCc2cc(OC)ccc2[C@@H]1O3`, the AC50 at Cytochrome P450 3A4 was 2.51 µM (inconclusive); on Cytochrome P450 2C19 it was “inconclusive”.
In the case of `Oc1ccc2c3c1O[C@H]1c4[nH]c5ccccc5c4C[C@]4(O)[C@H](C2)N(CC2CC2)CC[C@@]314`, the half-maximal activity concentration (AC50) at Cytochrome P450 3A4 was 0.01 µM (inconclusive).
Take `O=C(c1ccc(Cl)cc1)c1c[nH]c(C(=O)C(Cl)(Cl)Cl)c1`: the EC50 on Protein RecA is > 380 µM (inconclusive).
Turning to `Cc1ccc(NCCC(=O)c2ccc(Cl)cc2)cc1C`, the AC50 on Cytochrome P450 3A4 was 3.55 µM (inconclusive).
With `Clc1ccccc1-c1cc(NCc2cccnc2)ncn1`, at Cytochrome P450 3A4, the AC50 is 10 µM (inconclusive).
In the case of `Cc1ccc(-c2nnc(-c3ccc4ccccc4c3)o2)cc1`, the results for the AC50 at Cytochrome P450 3A4 and on Cytochrome P450 2C9 were 6.31 µM (inconclusive) and 5.01 µM (inconclusive), respectively.
Regarding `O=C(Nc1ccccc1N1CCOCC1)c1cnccn1`, the AC50 at Cytochrome P450 3A4 is 14.1 µM (inconclusive); at Cytochrome P450 2C19 (read-out: AC50) it was 0.0398 µM (inconclusive).
Regarding `Cn1nc(/C=C/c2ccccc2)ccc1=O`, the results for the half-maximal effective concentration (EC50) (in the data set with H4; in [1]; in data set [2]) were 14.1 µM (active), 15.2 µM (active) and 10.9 µM (active), respectively.
Turning to `CCOC(=O)C1=C(O)/C(=C\c2ccc(OC)c(OC)c2)N=C1C`, the AC50 was 8.91 µM (inconclusive) on Cytochrome P450 1A2, 15.8 µM (inconclusive) at Cytochrome P450 3A4 and 39.8 µM (inconclusive) on Cytochrome P450 2C19 (read-out: AC50).
With `COc1cccc(Cn2c(=O)c(-c3ccccc3)nc3cnc(N(C)C)nc32)c1`, the AC50 at Cytochrome P450 1A2 is 10 µM (inconclusive); on Cytochrome P450 2C9 it was 15.8 µM (inconclusive).
The corresponding values for `CCCn1nnnc1NC(=O)c1ccc(C)cc1Cl` are 10 µM (inconclusive) and 0.2 µM (inconclusive).
On to `Cc1ccc(C(=O)NC(=S)NCC(=O)c2ccccc2)cc1`, for which the AC50 on Cytochrome P450 1A2 is 2.24 µM (inconclusive); at Cytochrome P450 3A4, 8.91 µM (inconclusive); at Cytochrome P450 2C9, 2.51 µM (inconclusive).
`Cc1cc(C(=O)CSc2cccc[n+]2[O-])c(C)n1-c1ccc(Br)cc1`: the EC50 in the data set on H4 was > 120 µM (not active); in [1] it was 55.6 µM (active); in data set [2], < 0.1 µM (active).
`Clc1ccc(-c2cnc(Oc3ccccc3)nc2)cc1`: the EC50 was 0.194 µM (active) in data set [1] and 2.63 µM (active) in [2].
Turning to `CN(C)Cc1ccccc1-c1nc(NCc2cccs2)c2ccccc2n1`, the AC50 at Cytochrome P450 3A4 was 6.31 µM (inconclusive).
`COc1ccc(C(CC(=O)Nc2ccccn2)N2Cc3ccccc3C2=O)cc1` (stereo unspecified): the figures for the EC50 (in the data set with H4; in data set [1]; in [2]) were > 120 µM (not active), 16.4 µM (active) and > 60 µM (not active), respectively.
On to `COc1ccc(NC(=O)N2CC[C@@]3(CCCN(S(C)(=O)=O)C3)C2)cc1`, for which the figures for the AC50 at Cytochrome P450 1A2 and on Cytochrome P450 3A4 were 25.1 µM (inconclusive) and 39.8 µM (inconclusive), respectively.
For the molecule `CCC(=O)n1nc(-c2ccc(OC)cc2)nc1N`, the AC50 at Cytochrome P450 2C9 was 0.0562 µM (inconclusive).
For `CCOC(=O)c1nnn(-c2nc(OC)nc(N3CCCCC3)n2)c1-c1ccccc1`, the results for the AC50 on Cytochrome P450 1A2 and at Cytochrome P450 2C9 were 14.1 µM (inconclusive) and 28.2 µM (inconclusive), respectively.
For the molecule `Cc1ccc(NC(=O)CC2SCCNC2=O)cc1Cl` (stereo unspecified), the EC50 in the data set with H4 was > 120 µM (not active); in data set [1], 30.9 µM (active); in data set [2] it was 14.5 µM (active).
As to `O=C(CN1C(=O)c2cccc3cccc(c23)C1=O)N1CCCCCC1`, the AC50 at Cytochrome P450 2C9 is 22.4 µM (inconclusive).
In the case of `CNc1nc(-c2ccccc2OC)nc2ccccc12`, the AC50 on Cytochrome P450 3A4 is 31.6 µM (inconclusive); at Cytochrome P450 2C19, “inconclusive”.
Regarding `O=C(Nc1cccn2ncnc12)c1ccccc1`, the EC50 in the data set with H4 was 23.5 µM (active); in [1], 14.8 µM (active); in data set [2], > 120 µM (not active).
For the molecule `CCOc1ccc(C(C)=O)cc1N1C(=O)C2C3C=CC(C3=C(C)C)C2C1=O` (stereo unspecified), the AC50 at Cytochrome P450 1A2 was 0.0631 µM (inconclusive); at Cytochrome P450 2C9, 5.62 µM (inconclusive); on Cytochrome P450 2C19 (read-out: AC50), 25.1 µM (inconclusive).
Consider `COc1ccc(CCc2nc(-c3cccs3)no2)cc1`, for which the EC50 in the data set on H4 is 23.3 µM (active); in data set [1], 6.22 µM (active); in [2] it was 19.2 µM (active).
For `Cc1cc(C)n(C(=O)c2cc3sccc3[nH]2)n1`, the values for the EC50 (with H4; in data set [1]; in data set [2]) were 83.6 µM (inconclusive), 14.6 µM (active) and 6.99 µM (active), respectively.
Consider `COc1ccc(CCNC(=O)c2ccc3c(c2)OCCO3)cc1`, for which, in the data set with H4, the EC50 is 66.7 µM (active).
For `COc1cc([C@H](O)CO)ccc1O`, at Cytochrome P450 3A4, the AC50 is 0.0316 µM (inconclusive).
Regarding `Cc1ccccc1NC(=O)C1Cc2ccccc2CN1C(=O)c1ccco1` (stereo unspecified), the EC50 with H4 is 12.7 µM (active); in data set [1], 39.3 µM (active); in data set [2] it was 35.6 µM (active).
Regarding `CCc1cc2c(nc1CC)CCN(CC/C(C)=N/OC[C@H]1O[C@H](c3ccccc3)C=C[C@@H]1Oc1ccc(OC)cc1)C2`, the concentration at half-maximal activity (AC50) on Cytochrome P450 3A4, at Cytochrome P450 2C9 and at Cytochrome P450 2D6 was 6.31 µM (inconclusive) each time.
Regarding `N=C(NOC(=O)c1ccco1)c1ccccc1`, the EC50 in the data set on H4 was > 120 µM (not active); in data set [1], 47.4 µM (active).
As to `CC(C)OC(=O)CSc1nc(-c2ccc(F)cc2)nc2ccc(F)cc12`, the AC50 at Cytochrome P450 2C9 was 0.0178 µM (inconclusive); at Cytochrome P450 2C19 (read-out: AC50), 0.112 µM (inconclusive).
Turning to `C[C@](O)(C(=O)Nc1ccc(S(=O)(=O)c2ccccc2)cc1)C(F)(F)F`, the AC50 at Cytochrome P450 1A2 is 39.8 µM (inconclusive); at Cytochrome P450 3A4 it was 31.6 µM (inconclusive); at Cytochrome P450 2D6, 31.6 µM (inconclusive); on Cytochrome P450 2C19 (read-out: AC50), 6.31 µM (inconclusive).
On to `O=c1c2c3nc4ccccc4nc3n(/N=C/c3ccccn3)c2ncn1-c1ccccc1`, for which the EC50 in the data set with H4 is > 120 µM (not active); in [1], 13 µM (active); in data set [2], > 120 µM (not active).
For the molecule `COc1ccc(OC)c(/C=N/c2ccccc2-c2nc3ccccc3[nH]2)c1`, the EC50 in the data set with H4 is 10.8 µM (active); in data set [1], 8.07 µM (active); in data set [2], 13.1 µM (active).

Source of the values: ChEMBL document CHEMBL1201862, “PubChem BioAssay data set” (2004).
